In this experiment the target is CFTR (Homo sapiens, UniProt P13569). In words: T84 assay (FLIPR membrane potential). It is filed as cell-based. Also on record: Human colonic T84 cells are acquired from the European Collection of Cell Cultures (ECACC); host or cells: T84 human colonic cells. The procedure: (§1) For example, Human colonic T84 cells can be acquired from the European Collection of Cell Cultures (ECACC) and grown in standard culture conditions as described by the supplier. On the day before assay 25,000 T84 cells per well are plated into standard black walled, clear bottom 384-well assay plates in standard growth medium consisting of DMEM:F12 with 10% FBS and incubated overnight. On the day of the assay the plates are washed using a standard assay buffer (HBSS with 10 mM Hepes) and incubated for 15 minutes in serum free cell culture medium before the addition of a commercially available membrane potential sensitive fluorescent dye (FLIPR Red membrane potential dye, Molecular Devices Corporation). T84 cells are incubated with the FLIPR Red membrane potential dye for 45 minutes in the presence and absence of test compound before being transferred to a commercially available fluorescence imaging plate reader (FLIPR384, Molecular Devices Corporation). Fluorescence levels are monitored continuously every second for 150 seconds; after an initial 10 second baseline, CFTR channel activity is stimulated through the addition of 10 μM forskolin in the presence of 100 μM of the phosphodiesterase inhibitor iso-butyl-methylxanthine (IBMX). Addition of the forskolin leads to the activation of intracellular adenylyl cylase 1, elevating cAMP levels and results in the phosphorylation and opening of CFTR anion channels. CFTR channel opening causes chloride ion efflux and subsequent depolarization of the cells, which is measured by an increase in fluorescence. CFTR inhibitor compounds prevent cell depolarization and the associated increase in fluorescence.
CFTR, sequence (P13569 whole entry): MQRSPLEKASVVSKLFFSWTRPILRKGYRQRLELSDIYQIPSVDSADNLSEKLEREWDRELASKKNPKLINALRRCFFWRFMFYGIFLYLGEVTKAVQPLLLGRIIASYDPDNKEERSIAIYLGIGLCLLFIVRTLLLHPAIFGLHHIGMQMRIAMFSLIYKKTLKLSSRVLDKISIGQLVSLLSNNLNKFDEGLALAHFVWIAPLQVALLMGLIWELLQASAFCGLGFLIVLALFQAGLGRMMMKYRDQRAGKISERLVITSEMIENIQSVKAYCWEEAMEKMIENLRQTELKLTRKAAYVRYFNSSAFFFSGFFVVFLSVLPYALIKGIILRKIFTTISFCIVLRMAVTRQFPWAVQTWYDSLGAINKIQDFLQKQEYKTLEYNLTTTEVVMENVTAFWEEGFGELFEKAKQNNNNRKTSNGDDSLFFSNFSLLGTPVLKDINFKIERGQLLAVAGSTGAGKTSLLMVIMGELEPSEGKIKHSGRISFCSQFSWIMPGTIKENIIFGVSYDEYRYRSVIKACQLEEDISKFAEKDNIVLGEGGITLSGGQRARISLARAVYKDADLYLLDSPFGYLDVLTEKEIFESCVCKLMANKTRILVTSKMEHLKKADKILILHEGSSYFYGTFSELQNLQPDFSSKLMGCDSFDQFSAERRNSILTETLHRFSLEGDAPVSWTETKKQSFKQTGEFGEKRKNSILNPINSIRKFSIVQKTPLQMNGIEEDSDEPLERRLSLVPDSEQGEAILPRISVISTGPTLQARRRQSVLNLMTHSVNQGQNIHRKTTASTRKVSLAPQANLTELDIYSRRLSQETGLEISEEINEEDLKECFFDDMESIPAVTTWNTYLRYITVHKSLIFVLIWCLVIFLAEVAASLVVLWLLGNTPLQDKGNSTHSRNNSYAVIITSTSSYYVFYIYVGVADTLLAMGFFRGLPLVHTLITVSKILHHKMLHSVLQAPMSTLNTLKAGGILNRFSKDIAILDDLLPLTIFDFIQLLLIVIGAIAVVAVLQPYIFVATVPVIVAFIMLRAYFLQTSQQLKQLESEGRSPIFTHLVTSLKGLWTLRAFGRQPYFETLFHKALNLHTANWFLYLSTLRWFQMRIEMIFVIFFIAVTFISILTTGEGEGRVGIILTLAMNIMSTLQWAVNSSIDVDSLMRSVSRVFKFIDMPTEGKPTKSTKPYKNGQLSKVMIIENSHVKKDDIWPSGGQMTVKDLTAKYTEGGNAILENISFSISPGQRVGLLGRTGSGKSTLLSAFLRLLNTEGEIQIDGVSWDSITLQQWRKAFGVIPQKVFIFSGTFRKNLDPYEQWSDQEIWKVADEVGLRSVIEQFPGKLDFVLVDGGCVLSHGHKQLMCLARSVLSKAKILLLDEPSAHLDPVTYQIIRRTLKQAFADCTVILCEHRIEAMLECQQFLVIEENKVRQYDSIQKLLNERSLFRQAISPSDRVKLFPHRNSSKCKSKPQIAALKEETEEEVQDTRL
as §1, with “Human colonic” for “For example, Human colonic”, “T84 cells are acquired from” for “T84 cells can be acquired from”, “(ECACC) and are grown in” for “(ECACC) and grown in”, “with 10 Mm Hepes) and” for “with 10 mM Hepes) and”, “1, elevating Camp levels and” for “1, elevating cAMP levels and”

One may read the IC50 as the point on the concentration scale where inhibition reaches its midpoint. High values mean lower potency, low ones higher potency. Regarding `O=C(c1nnc(-c2cc(Cl)c(O)c(Cl)c2)o1)N1CCC(Cc2ccccc2)CC1` [Compound 3, (4-benzylpiperidin-1-yl)(5-(3,5-dichloro-4-hydroxyphenyl)-1,3,4-oxadiazol-2-yl)methanone], the IC50 was 9.5 µM.

Regarding `CN(Cc1ccc(Cl)c(Cl)c1)C(=O)c1nnc(-c2cccc(NS(=O)(=O)C(F)(F)F)c2)o1` [Compound 10, N-(3,4-dichlorobenzyl)-N-methyl-5-(3-(trifluoromethylsulfonamido)phenyl)-1,3,4-oxadiazole-2-carboxamide], inhibition was half-maximal at 11.8 µM (IC50).

Compound `O=C(NCc1cccc(OC(F)(F)F)c1)c1nnc(-c2cc(Cl)c(O)c(Cl)c2)o1` [Compound 1, 5-(3,5-dichloro-4-hydroxyphenyl)-N-(3-(trifluoromethoxy)benzyl)-1,3,4-oxadiazole-2-carboxamide] returned an IC50 of 17.4 µM.

As to `CN(Cc1ccc(Cl)c(Cl)c1)C(=O)c1nnc(-c2cc(Cl)c(O)c(Cl)c2)o1` [Compound 12, 5-(3,5-dichloro-4-hydroxyphenyl)-N-(3,4-dichlorobenzyl)-N-methyl-1,3,4-oxadiazole-2-carboxamide], the IC50 was determined as 1.88 µM.

Turning to `O=C(NCc1ccc(OC(F)(F)F)cc1)c1nnc(-c2cc(Cl)c(O)c(Cl)c2)o1` [Compound 22, 5-(3,5-dichloro-4-hydroxyphenyl)-N-(4-(trifluoromethoxy)benzyl)-1,3,4-oxadiazole-2-carboxamide], the IC50 was found to be 14.3 µM.

Compound `O=C(NCc1ccc(Oc2ccccc2)cc1)c1nnc(-c2cc(Cl)c(O)c(Cl)c2)o1` [Compound 2, 5-(3,5-Dichloro-4-hydroxyphenyl)-N-(4-phenoxybenzyl)-1,3,4-oxadiazole-2-carboxamide] showed an IC50 of 3.95 µM.

For the compound `O=C(NCc1ccc(Oc2ccccc2)cc1)c1nnc(-c2cccc(NS(=O)(=O)C(F)(F)F)c2)o1` [Compound 7, N-(4-phenoxybenzyl)-5-(3-(trifluoromethylsulfonamido)phenyl)-1,3,4-oxadiazole-2-carboxamide], the IC50 stood at 15.8 µM. This IC50 lies about 4-fold higher than the previous one.

The compound `CN(Cc1cccc(Oc2ccccc2)c1)C(=O)c1nnc(-c2cc(Cl)c(O)c(Cl)c2)o1` [Compound 13, 5-(3,5-dichloro-4-hydroxyphenyl)-N-methyl-N-(3-phenoxybenzyl)-1,3,4-oxadiazole-2-carboxamide] registered an IC50 of 3.26 µM.

In turn, `O=C(c1nnc(-c2cccc(NS(=O)(=O)C(F)(F)F)c2)o1)N1CCN(c2cccc(C(F)(F)F)c2)CC1` [Compound 11, 1,1,1-trifluoro-N-(3-(5-(4-(3-(trifluoromethyl)phenyl)piperazine-1-carbonyl)-1,3,4-oxadiazol-2-yl)phenyl)methanesulfonamide] returned an IC50 of 13.4 µM.

The compound `CN(Cc1ccc(Cl)c(Cl)c1)C(=O)c1nnc(-c2ccc(NS(=O)(=O)C(F)(F)F)cc2)o1` [Compound 17, N-(3,4-dichlorobenzyl)-N-methyl-5-(4-(trifluoromethylsulfonamido)phenyl)-1,3,4-oxadiazole-2-carboxamide] showed an IC50 of 9.62 µM.

On to `O=C(NCc1ccc(OCc2ccccc2)cc1)c1nnc(-c2cc(Cl)c(O)c(Cl)c2)o1` [Compound 18, N-(4-(benzyloxy)benzyl)-5-(3,5-dichloro-4-hydroxyphenyl)-1,3,4-oxadiazole-2-carboxamide], for which the 50% inhibitory concentration (IC50) came out at 9.86 µM.

Regarding `CC(NC(=O)c1nnc(-c2cc(Cl)c(O)c(Cl)c2)o1)c1ccc(Cl)cc1` (stereo not shown) [Compound 26, N-(1-(4-chlorophenyl)ethyl)-5-(3,5-dichloro-4-hydroxyphenyl)-1,3,4-oxadiazole-2-carboxamide], the IC50 was found to be 27.8 µM. Compared with the last compound, the IC50 is about 2.8-fold higher.

In the case of `O=C(NCc1cccc(Oc2ccccc2)c1)c1nnc(-c2cc(Cl)c(O)c(Cl)c2)o1` [Compound 14, 5-(3,5-dichloro-4-hydroxyphenyl)-N-(3-phenoxybenzyl)-1,3,4-oxadiazole-2-carboxamide], 5.37 µM corresponded to half-maximal inhibition (IC50).

Turning to `O=C(c1nnc(-c2cccc(NS(=O)(=O)C(F)(F)F)c2)o1)N1CCC(Cc2ccccc2)CC1` [Compound 8, N-(3-(5-(4-benzylpiperidine-1-carbonyl)-1,3,4-oxadiazol-2-yl)phenyl)-1,1,1-trifluoromethanesulfonamide], the IC50 is 13.3 µM.

As for `CC(C)(C)c1ccc(CNC(=O)c2nnc(-c3cccc(NS(=O)(=O)C(F)(F)F)c3)o2)cc1` [Compound 9, N-(4-tert-butylbenzyl)-5-(3-(trifluoromethylsulfonamido)phenyl)-1,3,4-oxadiazole-2-carboxamide], the IC50 stood at 19 µM.

Regarding `O=C(NCc1ccc(F)c(C(F)(F)F)c1)c1nnc(-c2cc(Cl)c(O)c(Cl)c2)o1` [Compound 24, 5-(3,5-dichloro-4-hydroxyphenyl)-N-(4-fluoro-3-(trifluoromethyl)benzyl)-1,3,4-oxadiazole-2-carboxamide], the IC50 amounted to 19.7 µM.

Compound `O=C(NCc1cc(F)cc(C(F)(F)F)c1)c1nnc(-c2cc(Cl)c(O)c(Cl)c2)o1` [Compound 21, 5-(3,5-dichloro-4-hydroxyphenyl)-N-(3-fluoro-5-(trifluoromethyl)benzyl)-1,3,4-oxadiazole-2-carboxamide] had an IC50 of 13.6 µM.

`O=C(NC(c1ccccc1)c1ccccc1)c1nnc(-c2cc(Cl)c(O)c(Cl)c2)o1` [Compound 6, N-benzhydryl-5-(3,5-dichloro-4-hydroxyphenyl)-1,3,4-oxadiazole-2-carboxamide] yielded an IC50 of 14.6 µM.

`O=C(NCc1ccc(Oc2ccccc2)cc1)c1nnc(-c2ccc(NS(=O)(=O)C(F)(F)F)cc2)o1` [Compound 23, N-(4-phenoxybenzyl)-5-(4-(trifluoromethylsulfonamido)phenyl)-1,3,4-oxadiazole-2-carboxamide] showed an IC50 of 18.8 µM.

For the compound `O=C(c1nnc(-c2ccc(NS(=O)(=O)C(F)(F)F)cc2)o1)N1CCN(c2cccc(C(F)(F)F)c2)CC1` [Compound 25, 1,1,1-trifluoro-N-(4-(5-(4-(3-(trifluoromethyl)phenyl)piperazine-1-carbonyl)-1,3,4-oxadiazol-2-yl)phenyl)methanesulfonamide], inhibition was half-maximal at 20.6 µM (IC50).

In turn, `CC(C)(C)c1ccc(CNC(=O)c2nnc(-c3ccc(NS(=O)(=O)C(F)(F)F)cc3)o2)cc1` [Compound 20, N-(4-tert-butylbenzyl)-5-(4-(trifluoromethylsulfonamido)phenyl)-1,3,4-oxadiazole-2-carboxamide] displayed an IC50 of 12.7 µM.

Compound `O=C(NCc1cccc(OCc2ccccc2)c1)c1nnc(-c2cc(Cl)c(O)c(Cl)c2)o1` [Compound 16, N-(3-(benzyloxy)benzyl)-5-(3,5-dichloro-4-hydroxyphenyl)-1,3,4-oxadiazole-2-carboxamide] yielded an IC50 of 7.53 µM. This IC50 is about 1.7-fold lower than that of the compound before.

Turning to `O=C(NCc1cccc(-c2ccccc2)c1)c1nnc(-c2cc(Cl)c(O)c(Cl)c2)o1` [Compound 19, N-(biphenyl-3-ylmethyl)-5-(3,5-dichloro-4-hydroxyphenyl)-1,3,4-oxadiazole-2-carboxamide], the IC50 came out at 9.89 µM. This IC50 and that of the compound before are within 1.5-fold of each other.

With `O=C(NCC(c1ccccc1)c1ccccc1)c1nnc(-c2cc(Cl)c(O)c(Cl)c2)o1` [Compound 15, 5-(3,5-dichloro-4-hydroxyphenyl)-N-(2,2-diphenylethyl)-1,3,4-oxadiazole-2-carboxamide], the IC50 is 5.77 µM.

As for `CC(C)(C)c1ccc(CNC(=O)c2nnc(-c3cc(Cl)c(O)c(Cl)c3)o2)cc1` [Compound 5, N-(4-tert-butylbenzyl)-5-(3,5-dichloro-4-hydroxyphenyl)-1,3,4-oxadiazole-2-carboxamide], the IC50 was found to be 7.38 µM.

These data come from patent US20120136003A1, “COMPOUNDS, COMPOSITIONS AND METHODS COMPRISING 1,3,4-OXADIAZOLE DERIVATIVES” (Institute For Oneworld Health, priority 2009, published 2012).
